Laboratory results as given in ChEMBL document CHEMBL1201862, “PubChem BioAssay data set” (2004).
Several values for one entry are separate records, joined by “and”; a condition that tells them apart may be missing. Equal values may be shown once. Activity calls are given as the source filed them. For most assays here, no stated cut-off is given here; in the data, actives have a measured EC50 and inactives only a lower limit.

Key:
[1] = biological target: T1, Heat shock factor protein 1 (Mus musculus, UniProt P38532); experiment: decrease of HSF1-responsive luciferase luminescence – cell-based, NIH3T3, dose retest, confirmation (AID 2382); assay type: functional;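 further: NIH3T3 fibroblasts with HSF1-driven luciferase reporter stressed by proteasome inhibitor MG132; luminescence from HSF1-driven luciferase expression after 8 hours of MG132 stress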
T1 sequence (P38532 whole entry): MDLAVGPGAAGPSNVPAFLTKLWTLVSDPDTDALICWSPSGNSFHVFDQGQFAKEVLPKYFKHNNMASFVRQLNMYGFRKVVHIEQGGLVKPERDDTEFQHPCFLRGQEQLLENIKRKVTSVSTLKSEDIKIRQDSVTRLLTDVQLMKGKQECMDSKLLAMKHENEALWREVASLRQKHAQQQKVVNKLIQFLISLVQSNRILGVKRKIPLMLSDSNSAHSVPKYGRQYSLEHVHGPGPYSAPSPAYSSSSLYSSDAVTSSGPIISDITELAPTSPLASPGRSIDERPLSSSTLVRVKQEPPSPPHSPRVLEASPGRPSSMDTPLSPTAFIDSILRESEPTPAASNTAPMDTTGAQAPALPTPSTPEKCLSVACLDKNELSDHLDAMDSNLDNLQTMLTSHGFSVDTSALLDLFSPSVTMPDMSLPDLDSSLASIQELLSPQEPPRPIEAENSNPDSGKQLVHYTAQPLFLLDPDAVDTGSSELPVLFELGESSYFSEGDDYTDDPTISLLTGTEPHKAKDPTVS

Cytochrome P450 3A4 = Cytochrome P450 3A4 (Homo sapiens, UniProt P08684);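 further: CYP3A4 tested as one member of a cytochrome P450 panel screen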
[2] = NIH3T3 cell viability loss – ATP luminescence, mouse fibroblasts, counter-screen, dose response (AID 2010); assay type: functional, cell-based;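 further: cells exposed to compound for about 90 hours before reading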
[3] = Trypanosoma cruzi growth suppression in host cells – NIH3T3 host cells, beta-gal luminescence, confirmation (AID 2044); assay type: functional, cell-based;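 further: intracellular parasites grown in NIH/3T3 mouse fibroblasts as host cells; luminescent beta-galactosidase reporter signal from transgenic T. cruzi replicating inside host cells; inhibitors lower the luminescence signal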
Streptococcus = experiment: GAS UMAA2166 growth inhibition – luminescence, BacTiterGlo, counter-screen for streptokinase expression inhibitor project, dose response (AID 1915); assay type: functional, organism-based;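 further: potency for reduction of bacterial viability or growth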
Streptokinase A = biological target: T2, Streptokinase A (Streptococcus pyogenes serotype M1, UniProt P10520); experiment: viability-normalized secreted streptokinase activity reduction – plasminogen activation absorbance, OD405, dose response (AID 1914); assay type: functional, Streptococcus pyogenes M1 GAS;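 further: secreted streptokinase activity via plasminogen activation per viability signal from cell pellet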
T2 sequence (P10520 whole entry): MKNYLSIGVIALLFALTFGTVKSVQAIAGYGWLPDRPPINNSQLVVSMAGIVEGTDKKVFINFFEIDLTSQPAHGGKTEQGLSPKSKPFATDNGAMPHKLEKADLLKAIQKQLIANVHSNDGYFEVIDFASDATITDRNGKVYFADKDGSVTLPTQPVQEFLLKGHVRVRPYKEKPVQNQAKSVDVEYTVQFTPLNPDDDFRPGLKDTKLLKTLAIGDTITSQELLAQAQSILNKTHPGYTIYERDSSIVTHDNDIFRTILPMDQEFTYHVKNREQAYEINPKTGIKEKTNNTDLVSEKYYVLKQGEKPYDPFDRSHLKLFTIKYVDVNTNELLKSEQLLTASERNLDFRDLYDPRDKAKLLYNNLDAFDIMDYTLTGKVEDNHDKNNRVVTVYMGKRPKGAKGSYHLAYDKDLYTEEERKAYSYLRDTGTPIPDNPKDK

[4] = test system: Streptococcus sp. 'group A'; experiment: Streptococcus pyogenes SK(-)GAS viability under kanamycin – luminescence, BacTiterGlo, confirmation, counter-screen for streptokinase expression inhibitor project, dose response (AID 1900); assay type: functional, organism-based

Chain of Cytochrome P450 3A4 (P08684 whole entry): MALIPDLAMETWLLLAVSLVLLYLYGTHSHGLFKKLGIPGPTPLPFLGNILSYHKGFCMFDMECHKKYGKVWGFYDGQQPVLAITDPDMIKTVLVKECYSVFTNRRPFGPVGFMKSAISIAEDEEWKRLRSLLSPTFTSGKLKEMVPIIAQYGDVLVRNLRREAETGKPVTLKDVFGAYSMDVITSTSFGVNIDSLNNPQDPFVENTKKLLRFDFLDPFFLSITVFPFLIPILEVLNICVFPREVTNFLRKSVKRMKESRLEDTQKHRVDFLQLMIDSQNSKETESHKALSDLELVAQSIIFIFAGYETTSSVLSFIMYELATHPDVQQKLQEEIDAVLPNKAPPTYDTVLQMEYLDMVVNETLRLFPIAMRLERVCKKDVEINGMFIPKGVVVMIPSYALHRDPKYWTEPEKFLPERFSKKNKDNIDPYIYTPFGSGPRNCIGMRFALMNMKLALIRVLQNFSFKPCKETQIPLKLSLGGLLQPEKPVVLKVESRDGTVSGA

O=C(N/N=C/c1cc([N+](=O)[O-])ccc1O)c1ccncc1
EC50 [1]: 0.66 µM (active)

O=C1[C@H]2[C@H]3[C@H](O)[C@H](O)C/C(=N/OC[C@@H](O)COCc4ccco4)[C@H]3CC[C@@H]2C(=O)N1c1cccc(Oc2ccccc2)c1
AC50 (Cytochrome P450 3A4): 3.16 µM (inconclusive)

C=CCn1c(O)c(N=NC(=S)Nc2ccc(OC)c(Cl)c2)c2ccccc21
EC50 [2]: 3.88 µM (active) | EC50 [3]: 0.586 µM (active)

N#CC1=C(N)SC(N)=C(C#N)C1c1c(Cl)cccc1Cl
EC50 (Streptococcus): > 150 µM (not active) | EC50 (Streptokinase A): 93.5 µM (active) | EC50 [4]: 6.67 µM (active)

C[C@H](N)Cc1c[nH]c2ccc(OCc3cccs3)cc12
AC50 (Cytochrome P450 3A4): 15.8 µM (inconclusive) and 12.6 µM (inconclusive)

CCCCCCCCCC(=O)N/N=C(\C)c1cccnc1
EC50 [2]: > 60 µM (not active) | EC50 [3]: 1.31 µM (active)

CC(C)(C)NC(=O)CSc1nc2ccc(Nc3nc(N4CCOCC4)nc(N4CCOCC4)n3)cc2s1
EC50 [2]: > 30 µM (not active) | EC50 [3]: 0.832 µM (active)

O=C(c1c(F)cccc1F)N1CCN(c2ccccc2F)CC1
EC50 [1]: > 195 µM (not active)

Cc1noc(C)c1-c1nccc(N(C)C)n1
AC50 (Cytochrome P450 3A4): 31.6 µM (inconclusive)

CC(/N=C/C1=C(O)OC(C)(C)OC1=O)C(=O)O (stereo not drawn)
EC50 [2]: > 60 µM (not active)

COc1ccc(S(=O)(=O)N2CCC(NC(=O)C(Cc3cccc(OC)c3OC)NC(C)=O)CC2)cc1 (stereo not drawn)
EC50 [1]: > 195 µM (not active)

CCCCN(C)S(=O)(=O)c1ccc(C(=O)N(CCN(C)C)c2nc3ccc(C)cc3s2)cc1
EC50 [2]: > 60 µM (inconclusive) | EC50 [3]: 0.182 µM (active)

Cc1ccsc1C(=O)OCC(=O)c1cc2ccccc2o1
EC50 (Streptococcus): > 150 µM (not active) | EC50 (Streptokinase A): > 150 µM (not active) | EC50 [4]: > 150 µM (not active)

CN1CCC(OC(=O)c2cccc(F)c2)CC1
EC50 [2]: > 30 µM (not active) | EC50 [3]: 0.256 µM (active)

COc1ccc(N(C)C(=O)c2oc(=O)c3ccccc3c2-c2ccccc2)c(OC)c1
EC50 [1]: > 195 µM (not active)

CC(=O)OC[C@@H]1O[C@H](C/C=N\O[C@@H](C)CN2CCCc3nc(C)c(C)cc32)C=C[C@@H]1OC(C)=O
AC50 (Cytochrome P450 3A4): 3.98 µM (inconclusive)

CCOC(=O)c1c(-c2ccccc2)c2cc(OC)ccc2n1CCCN(C)C
EC50 [2]: 16.3 µM (active) | EC50 [3]: 0.653 µM (active)

CCOc1ccc(CN2CCCC(CNC(=O)c3ccc(F)cc3)C2)cc1CO (stereo not drawn)
EC50 [2]: > 30 µM (not active) | EC50 [3]: 0.771 µM (active)

O=C(O)c1cc2cc(F)ccc2[nH]1 [5-FLUOROINDOLE-2-CARBOXYLIC ACID]
EC50 [1]: > 195 µM (not active)

Cc1cc(C)c2nc(O)c(CN(Cc3ccccc3)C(S)=NCCCN(C)C)cc2c1
EC50 [2]: > 60 µM (not active) | EC50 [3]: 2.19 µM (active)

Cc1ccc(-c2nn(-c3ccccc3)cc2CN(C)C(=O)CCC(=O)O)cc1C
EC50 [1]: > 195 µM (not active)

Cc1ccccc1SCC(=O)Nc1cc(C(F)(F)F)ccc1N1CCOCC1
EC50 [2]: > 60 µM (not active) | EC50 [3]: 3.94 µM (active)

Cc1cccc(N2CCN(C(=O)c3ccc4nc(N5CCCCC5)sc4c3)CC2)c1C
EC50 (Streptococcus): 140 µM (active) | EC50 (Streptokinase A): 14.6 µM (active) | EC50 [4]: 13.8 µM (active)

COc1cccc(COC(=O)c2ccc3c(=O)n4c(nc3c2)CCC4)c1OC
EC50 (Streptococcus): 34.1 µM (active) | EC50 (Streptokinase A): > 150 µM (not active) | EC50 [4]: 10.8 µM (active)

Cc1cc(C(C)(C)C)ccc1OCCOCCN1CCCC1
EC50 [2]: > 60 µM (inconclusive) | EC50 [3]: 0.913 µM (active)

O=C(c1cc(C(F)(F)F)cc(C(F)(F)F)c1)N1CCC[C@@]2(CCN(c3ccccc3)C2)C1
AC50 (Cytochrome P450 3A4): 3.16 µM (inconclusive)

CNc1ccnc(-c2ccccc2OC)n1
AC50 (Cytochrome P450 3A4): 31.6 µM (inconclusive)

OCCCCNCc1ccc(OCc2ccc(Cl)cc2)cc1
EC50 [2]: 10.6 µM (active) | EC50 [3]: 2.39 µM (active)

COc1ccc(-n2ncc3c(NCCCN4CCOCC4)ncnc32)cc1
EC50 [1]: 1.52 µM (active)

O=C(CSc1nnc(NC(=O)c2cccc(Cl)c2)s1)NCC1CCCO1 (stereo not drawn)
EC50 (Streptococcus): > 150 µM (not active) | EC50 (Streptokinase A): > 150 µM (not active) | EC50 [4]: > 150 µM (not active)

Cc1cccc(CN2CCCC(C(=O)N3CCc4ccccc4C3)C2)c1 (stereo not drawn)
EC50 [2]: > 60 µM (not active) | EC50 [3]: 0.214 µM (active)

C=CCn1c(C)cc(C(=O)CSc2nnc(NC(C)C)s2)c1C
EC50 [1]: > 195 µM (not active)

CCn1ncc(CN2CCCC(CNC(=O)c3ccc(F)cc3)C2)c1C (stereo not drawn)
EC50 [2]: > 60 µM (not active) | EC50 [3]: 0.106 µM (active)

CN1CCN(c2ncc3nc(-c4cc(F)cc(F)c4)c(=O)n(C4CC4)c3n2)CC1
AC50 (Cytochrome P450 3A4): 39.8 µM (inconclusive)

Cc1ccc(CN2C(=O)c3ccccc3NC2c2cc(Br)ccc2O)cc1 (stereo not drawn)
EC50 (Streptococcus): 8.52 µM (active) | EC50 (Streptokinase A): 5 µM (active) | EC50 [4]: 5.08 µM (active)

CCOc1ccc(/C=N/Nc2cc(N3CCOCC3)nc(C)n2)c(O)c1
EC50 (Streptococcus): > 150 µM (not active) | EC50 (Streptokinase A): > 150 µM (not active) | EC50 [4]: > 150 µM (not active)

CN(c1ccccc1)c1nc(N2CCCC2)nc(-n2ccnc2)n1
EC50 (Streptococcus): > 50 µM (not active) | EC50 (Streptokinase A): 75.6 µM (active) | EC50 [4]: 13.1 µM (active)

COC(=O)C(Cc1cnc(Cl)s1)(C(=O)OC)c1ccc([N+](=O)[O-])cc1[N+](=O)[O-]
EC50 [2]: > 60 µM (not active) | EC50 [3]: 1.2 µM (active)

CCOC(=O)c1[nH]c(C)c(C(=O)N2CCC3(CC2)OCCO3)c1C
AC50 (Cytochrome P450 3A4): 22.4 µM (inconclusive)

Sc1nc(SCc2ccccc2)nc2ccccc12
EC50 (Streptococcus): 64.9 µM (active) | EC50 [4]: 4.43 µM (active)

CCCCC(=O)Nc1cccc(NC(=O)c2cccc(Br)c2)c1
EC50 [1]: > 195 µM (not active)

Cc1[nH]c2ccccc2c1/C=N/Nc1ccccc1[N+](=O)[O-]
EC50 [2]: > 60 µM (not active) | EC50 [3]: 2.3 µM (active)

CCCCCCCc1nn2c(O)cc(=O)nc2s1
EC50 (Streptococcus): > 150 µM (not active) | EC50 (Streptokinase A): > 150 µM (not active) | EC50 [4]: 10.9 µM (active)

Cc1c2c(n3c(nc4ccccc43)c1C#N)N(CCCN(C)C)CC2
EC50 [2]: > 60 µM (not active) | EC50 [3]: 0.242 µM (active)

COCCOC(=O)CC1=NC(=O)CS1
EC50 [1]: > 195 µM (not active)

CCC1COCCS(=O)(=O)N1Cc1ccccc1C (stereo not drawn)
EC50 [1]: > 195 µM (not active)

Cc1cccc(NC(c2ccc(C)s2)c2ccc3ccc(C)nc3c2O)n1 (stereo not drawn)
EC50 (Streptococcus): 9.05 µM (active) | EC50 (Streptokinase A): 2.96 µM (active) | EC50 [4]: 2.83 µM (active)

COC(=O)c1ccc(CSc2cc(C)c3cc(C)cc(C)c3n2)o1
EC50 (Streptococcus): > 150 µM (not active) | EC50 (Streptokinase A): 12.6 µM (active) | EC50 [4]: 34.2 µM (active)

O=C(CSc1ccccn1)N/N=C/c1cc([N+](=O)[O-])ccc1O
EC50 (Streptococcus): 2.72 µM (active) | EC50 [4]: 1.01 µM (active)

CC1CCN(CCOCCOc2ccc(Cl)cc2Br)CC1
EC50 [2]: 13.8 µM (active) | EC50 [3]: 0.54 µM (active)

CCOc1cc(/C=N/NC(=O)CN(CCc2ccccc2)S(=O)(=O)c2ccc(NC(C)=O)cc2)ccc1O
EC50 [1]: > 195 µM (not active)

COc1cccc(/C=N/NC(=O)c2nnn(-c3nonc3N)c2C(C)C)c1OCc1ccc(F)cc1
EC50 (Streptococcus): 43.1 µM (active) | EC50 (Streptokinase A): 62.6 µM (active) | EC50 [4]: 13 µM (active)

Cc1ccccc1C(=O)OC1CCN(C)CC1
EC50 [2]: 42.4 µM (active) | EC50 [3]: 0.115 µM (active)

CC(=O)[C@@H]1CC[C@@H]2[C@@H]3CC=C4C[C@H](OS(=O)(=O)O)CC[C@@]4(C)[C@H]3CC[C@]21C
AC50 (Cytochrome P450 3A4): 12.6 µM (inconclusive)

CCC(C)n1c(SC(C)C#N)nc2ccccc2c1=O (stereo not drawn)
EC50 [1]: > 195 µM (not active)

Cc1nc2cc([N+](=O)[O-])ccc2c(=O)n1-c1ccccc1[N+](=O)[O-]
EC50 [2]: 19.1 µM (active) | EC50 [3]: 1.91 µM (active)

CO[C@H]1COC(=O)CCC[C@@H](C)[C@H](OC)COC(=O)[C@H]2CCCN2C(=O)C/C=C\[C@@H]1C
AC50 (Cytochrome P450 3A4): 5.01 µM (inconclusive)

Cc1nn(-c2ccccc2)c(N)c1C(O)(CSc1nccn1C)C(F)(F)F (stereo not drawn)
EC50 [1]: > 195 µM (not active)
